According to US20250186397A1, “COMPOUNDS FOR THE USE IN THE TREATMENT OF MOOD DISORDERS” (Kanna Health Ltd, priority 2022, published 2025):
Like-named read-outs stand apart in the source and are kept apart here.

Key:
C57B6J mice [1] = assay: Female urine sniffing test after chronic mild unpredictable stress; format: in vivo; conditions: 60 minutes pre-test; for time sniffing female estrous urine: relative to vehicle
Description: (§1) FIG. 2. Effect of mesembrenol (0.3, 1 and 3 mg/kg, i.p.) administered 60 minutes pre-test on preference to examine the female estrous urine treat following chronic mild unpredictable stress. Data represents total time (sec) engaged in sniffing and investigating the urine soaked cotton tip during a 3 minute trial period. Analysis by one-way ANOVA followed by multiple comparisons with Sidak's correction; **-****P<0.01-0.0001 vs stress vehicle (n=8).
as §1, with “3.” for “2.”, “mesembranol” for “mesembrenol”
(§2) C57BI6J mice, will be housed in groups of 4, will be exposed to a variety of mild stressors for a period of four weeks.
(§3) The stressors will include wet bedding, 40° cage tilt, introduction of intruder mouse from different experimental cohort, food deprivation, water deprivation, overnight illumination, and presence of soiled rat bedding as an aversive odour. These stressors are randomly scheduled over each weekly period and repeated for the duration of the experiment. Each stressor is applied for a period of 8-16 hours.
(§4) A cohort of depression-like phenotype in adult male C57B6J mice is produced by employing a four-week mild unpredictable stress protocol.
Following two weeks treatment with imipramine, or acute treatment with vehicle or the test compounds (mesembrenol and mesembranol), the reversal of stress induced depression-like behaviour was determined using a measure of anhedonia, female urine sniffing preference.
The test compounds were evaluated at three doses with comparison made to vehicle control, no stress control and the reference control imipramine (n=8). […]
Animals are subsequently transferred to individual cages and exposed for a 3 minute period to a cotton tipped applicator which is dipped in water and attached to the side of the cage. The time each animal spends sniffing the water-impregnated cotton tipped applicator is scored manually by the observer who is blinded to group treatments.
Following a 45 minute interval in the absence of a cotton tipped applicator, an applicator dipped in the urine of a female mice in oestrus is presented and the time spent sniffing the urine-impregnated cotton bud is recorded over a 3 minute period. […]
Testing is conducted under low level red light and behaviour is scored remotely via a video camera placed above the cage.

C57B6J mice [2] = assay: Sucrose preference test after chronic mild unpredictable stress; format: in vivo; conditions: relative to stress vehicle; for sucrose preference: all time points tested
Description: (§5) FIG. 4. Effect of mesembrenol (0.3, 1 and 3 mg/kg, i.p.) administered 30 minutes pre-test on sucrose preference following chronic mild unpredictable stress. Data represents cumulative % preference for sucrose solution over water at the 4, 8, 12 and 24 hour timepoints of the test period. Analysis by repeat measures two-way ANOVA followed by multiple comparisons with Dunnet's correction; *-****P<0.05-0.0001 vs stress vehicle (n=8).
as §5, with “5.” for “4.”, “mesembranol” for “mesembrenol”, “by” for “by repeat measures”, “Sidak's” for “Dunnet's”, “*-*P<0.001-0.0001” for “*-****P<0.05-0.0001”
as §2, §3, §4
An additional readout was used to assess antidepressant-like activity of the test compounds using a further measure of anhedonia, the sucrose preference test.
During this test, mice are housed individually and provided, for 24 hours, a free choice between two bottles, one with 1% sucrose solution and another with filtered tap water.
To prevent possible effects of side preference in drinking behaviour, the position of the bottles is swapped after 12 hours. The consumption of water and sucrose solution is estimated simultaneously in control and experimental groups by weighing the bottles. The sucrose intake is calculated as an amount of consumed sucrose in mg per gram body weight. The preference for sucrose is calculated as a percentage of consumed sucrose solution of the total amount of liquid drunk.
A decrease of sucrose preference below 65%, is taken as the criterion for anhedonia. […] In addition, mice with a lower than 65% sucrose preference in other models display features of anhedonia and depression, such as an increased threshold of intracranial self-stimulation and sleep disturbances.
The effect of 2 weeks treatment with imipramine or the acute effect of the test compound or vehicle is determined over this 24 hour period.

C57B6J mice [3] = assay: Forced swim test after chronic mild unpredictable stress; format: in vivo; conditions: 3 mg/kg i.p., 30 minutes pre-test, relative to vehicle
Description: (§6) FIG. 6. Effect of mesembrenol (0.3, 1 and 3 mg/kg, i.p.) administered 30 minutes pre-test on chronic mild unpredictable stress induced depression phenotype in the forced swim test. Data represents (A) latency to immobility (sec) and (B) total time immobile in the four minute evaluation phase of the procedure. Analysis by one-way ANOVA followed by multiple comparisons with Sidak's and Dunn's correction; **-****P<0.01-0.0001 vs stress vehicle (n=8).
as §6, with “7.” for “6.”, “mesembranol” for “mesembrenol”, “Sidak's” for “Sidak's and Dunn's”, “***-****P<0.001-0.0001” for “**-****P<0.01-0.0001”
as §2, §3, §4
The effect of treatment with the test compounds on chronic mild stress induced immobility in the forced swim test was tested to establish antidepressant-like activity.
Following the 24 hour sucrose preference test, animals are treated again with the test compound, imipramine or vehicle. Animals are individually placed in clear Plexiglas cylinders (25 cm high; 10 cm in diameter) which are filled to a depth of 15 cm with water at 22-25° C.
Testing is conducted under low level red light and behaviour recorded over a 6 minute period using a video camera placed above the cylinder. During the test the animals are placed in the cylinder and allowed to habituate for two minutes before the cumulative duration of time spent immobile is determined over the following 4 minutes. Latency to immobility is recorded.
Movements necessary for the animal to maintain its head above water will not be scored as activity.

C57B6J mice [4] = assay: Elevated plus maze after chronic mild unpredictable stress; format: in vivo
Description: (§7) FIG. 8. Effect of mesembrenol (0.3, 1 and 3 mg/kg, i.p.) administered 30 minutes pre-test on chronic mild unpredictable stress induced anxiety phenotype in the elevated plus maze. Data represents (A) latency to open arm entry (sec), (B) number of open arm entries (a.u.) and (C) total time in open arms of the apparatus during the ten minute procedure. Analysis by one-way ANOVA followed by multiple comparisons with Dunn's and Sidak's correction; *-**** P<0.05-0.0001 vs stress vehicle (n=8).
as §7, with “9.” for “8.”, “mesembranol” for “mesembrenol”
as §2, §3, §4
Finally, the effect of the test compounds on chronic unpredictable mild stress anxiogenic phenotype in the elevated plus-maze to determine anxiolytic-like activity.
The apparatus consists of 4 raised flat runways extending from a central platform raised 1 m above the floor of a 2 m wide water maze (prevents escape in the rare event of an animal falling from the apparatus). Two arms have enclosed sides while the others are open.
The mouse version of the apparatus employs maze arms of 30 cm length and 6 cm width, where the enclosed arms have walls 30 cm high. The room is lit with low level indirect lighting.
Animals are allowed to freely explore the apparatus over a 10 minute trial with remote video analysis capturing the pattern of animal movement. The time animals spend exploring the open arms of the maze during the trial is inversely related to the level of stress/anxiety felt by the animal.
Endpoints recorded are the latency (sec) to enter open arms of the maze, total number of open arm entries (a.u.) and total time (sec) spent in the open arms of the plus-maze.

[5] = target: T1, human serotonin transporter (Homo sapiens, UniProt P31645); assay: SERT assay, [3H] serotonin uptake in transfected CHO cells; format: cell-based; conditions: CHO cells with human serotonin transporter, 180 min
T1 construct: expressed in transfected cells; host or cells: CHO cells
T1 sequence (P31645 whole entry): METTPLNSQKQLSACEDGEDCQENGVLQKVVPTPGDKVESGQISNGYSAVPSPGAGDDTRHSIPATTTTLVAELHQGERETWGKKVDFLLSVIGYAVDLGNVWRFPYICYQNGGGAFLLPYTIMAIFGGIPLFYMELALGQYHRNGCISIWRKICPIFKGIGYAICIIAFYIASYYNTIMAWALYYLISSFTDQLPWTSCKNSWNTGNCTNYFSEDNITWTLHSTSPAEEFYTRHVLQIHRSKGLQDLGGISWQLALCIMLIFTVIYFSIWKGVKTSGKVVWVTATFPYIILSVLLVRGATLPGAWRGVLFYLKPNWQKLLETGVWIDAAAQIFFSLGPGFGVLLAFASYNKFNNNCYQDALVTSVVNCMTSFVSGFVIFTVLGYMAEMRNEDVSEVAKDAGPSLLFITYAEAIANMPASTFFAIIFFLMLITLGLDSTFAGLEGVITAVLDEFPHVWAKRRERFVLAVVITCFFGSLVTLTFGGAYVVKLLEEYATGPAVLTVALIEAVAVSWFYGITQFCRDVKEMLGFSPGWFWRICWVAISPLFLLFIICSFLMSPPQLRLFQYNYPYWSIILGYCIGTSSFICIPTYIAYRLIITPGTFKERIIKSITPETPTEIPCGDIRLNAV
Description: Test compounds (conc range), reference compound or vehicle control were incubated for 180 min at room temperature with CHO cells stably transfected with the human serotonin transporter (5×10^3 cells/well) with 0.15 μM [3H] serotonin in the presence or absence of the test or reference compound in buffer containing (in mM); Tris/HCl (pH 7.4) (5), HEPES/Tris (7.5), NaCl (120), KCl (5.4), CaCl2) (1.2), MgSO4 (1.2), Glucose (5) and ascorbic acid (1). Following incubation, [3H] serotonin uptake was quantified by a standard scintillation counting method.
(§8) Data were expressed as the mean of two technical replicates for each data point, and percent inhibition calculated relative to maximum inhibition observed in the presence of the reference comparator rolipram for PDE-4 assays, and imipramine for serotonin assays.

[6] = target: human recombinant PDE-4B1 (Homo sapiens, UniProt Q07343); assay: PDE4-B1 assay (SPA); format: biochemical; conditions: human recombinant enzyme, 450 nM cAMP
human recombinant PDE-4B1, sequence (Q07343 whole entry): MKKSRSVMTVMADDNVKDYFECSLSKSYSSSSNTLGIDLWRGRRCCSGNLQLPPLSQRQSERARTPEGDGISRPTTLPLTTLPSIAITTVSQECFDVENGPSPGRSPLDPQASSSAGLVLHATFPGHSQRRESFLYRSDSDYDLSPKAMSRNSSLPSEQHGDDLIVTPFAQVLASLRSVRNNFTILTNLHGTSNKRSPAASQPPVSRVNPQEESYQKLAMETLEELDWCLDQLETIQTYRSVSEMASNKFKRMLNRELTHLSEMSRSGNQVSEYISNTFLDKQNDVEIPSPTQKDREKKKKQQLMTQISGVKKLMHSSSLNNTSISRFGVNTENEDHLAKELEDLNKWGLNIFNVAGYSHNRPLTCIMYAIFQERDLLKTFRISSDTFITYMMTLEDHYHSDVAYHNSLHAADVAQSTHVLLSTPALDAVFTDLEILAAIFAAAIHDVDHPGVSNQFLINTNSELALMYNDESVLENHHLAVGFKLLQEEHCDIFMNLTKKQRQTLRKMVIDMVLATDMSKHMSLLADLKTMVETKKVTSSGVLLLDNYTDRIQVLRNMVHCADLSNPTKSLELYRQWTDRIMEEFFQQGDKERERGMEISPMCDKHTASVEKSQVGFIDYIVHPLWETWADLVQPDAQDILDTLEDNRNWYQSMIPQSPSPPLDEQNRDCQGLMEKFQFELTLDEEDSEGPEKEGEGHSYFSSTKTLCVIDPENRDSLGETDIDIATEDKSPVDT
Description: (§9) Test compounds (conc range), reference compound or vehicle control were added to assay buffer containing (in mM); Tris/HCl, pH 7.4 (40), MgCl2 (8) and EGTA/NaOH (1.7), containing 450 nM cAMP (450 nM) and 0.25 μCi (PDE-4B1) or 0.0125 μCi (PDE-4D2) [^3H] CAMP. 20 mins after addition of human recombinant PDE-4B1 (1.2 IEU) or PDE-4D2 (1.5 IEU), SPA beads were added and incubated at 22° C. for a further 30 mins. [^3H]5′AMP was quantified by a standard scintillation counting method.
as §8

[7] = target: human recombinant PDE-4D2 (Homo sapiens, UniProt Q08499); assay: PDE4-D2 assay (SPA); format: biochemical
human recombinant PDE-4D2, sequence (Q08499 303-809 limits assumed): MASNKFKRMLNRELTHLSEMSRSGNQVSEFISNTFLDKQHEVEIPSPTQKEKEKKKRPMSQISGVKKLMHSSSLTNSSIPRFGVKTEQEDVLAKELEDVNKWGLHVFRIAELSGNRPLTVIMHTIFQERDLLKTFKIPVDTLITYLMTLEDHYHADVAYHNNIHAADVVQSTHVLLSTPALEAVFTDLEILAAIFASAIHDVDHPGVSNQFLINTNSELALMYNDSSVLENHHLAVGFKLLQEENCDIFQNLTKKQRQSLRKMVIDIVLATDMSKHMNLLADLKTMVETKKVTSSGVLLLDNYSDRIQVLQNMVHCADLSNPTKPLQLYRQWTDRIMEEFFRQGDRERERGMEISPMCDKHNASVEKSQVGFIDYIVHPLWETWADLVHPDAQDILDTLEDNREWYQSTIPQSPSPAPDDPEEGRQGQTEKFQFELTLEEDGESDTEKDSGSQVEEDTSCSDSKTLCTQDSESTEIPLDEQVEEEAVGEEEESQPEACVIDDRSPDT
Description: as §9, §8

zebrafish = conditions: isolated alkaloids, Maphanga et al., 2022; cited from earlier work
in vivo = conditions: male, C57BI/6J, mouse, ip, 10 mg/kg
Description: Groups of male C57BI/6J mice received a single administration of test compound (10 mg/kg; i.p.) in methylcellulose (0.5% w/v).
Three mice from each dose group were subject to cardiac puncture under general anaesthesia at 0.25, 0.50, 1.00, 2.00, 4.00, 7.00 and 24.0 hours post-dose and plasma samples generated for application of standard LC-MS/MS bioanalytical methods.
Quantitation of compound concentration was derived from reference calibration data. Pharmacokinetic data were derived from serial plasma concentrations.

[8] = 3 mg/kg i.p., mesembrenol p<0.001, mesembranol p<0.01
[9] = 3 mg/kg i.p., 30 minutes pre-test, relative to vehicle

| SMILES | time sniffing female estrous urine (C57B6J mice [1]; [8]) | sucrose preference (C57B6J mice [2]; 3 mg/kg i.p.) | immobility time (C57B6J mice [3]) | latency to immobility (C57B6J mice [3]) | time spent in the open arms (C57B6J mice [4]; [9]) | IC50 [5] | IC50 [6] | IC50 [7] | effect in zebrafish model of anxiety (zebrafish) | AUC(0-inf) (in vivo) | Cmax (in vivo) | Tmax (in vivo) | half-life (in vivo) | further results |
| --- | --- | --- | --- | --- | --- | --- | --- | --- | --- | --- | --- | --- | --- | --- |
| COc1ccc(C23CCC(O)CC2N(C)CC3)cc1OC (centres unmarked) [Mesembranol, 3a-(3,4-dimethoxyphenyl)-1-methyl-3,4,5,6,7,7a-hexahydro-2H-indol-6-ol] | significant increase | statistically significant increase | significant reduction | no changes | significant increase | 143 nM | 8410 nM | 9840 nM | anxiolytic-like effect | 649 ng·h/mL | 834 ng/mL | 18 min | 21.8 min | number of open arm entries (C57B6J mice [4]; [9]): significant increase |
| COc1ccc([C@@]23CCC(=O)C[C@@H]2N(C)CC3)cc1OC [mesembrine] | – | – | – | – | – | – | – | – | anxiolytic-like effect | – | – | – | – | – |
| COc1ccc([C@@]23C=CC(=O)C[C@@H]2N(C)CC3)cc1OC [mesembrenone] | – | – | – | – | – | – | – | – | anxiolytic-like effect | – | – | – | – | – |
| COc1ccc(C23C=CC(O)CC2N(C)CC3)cc1OC (centres unmarked) [Mesembrenol] | significant increase | significant increase | significant reduction | significant increase | significant increase | 462 nM | 27600 nM | 3910 nM | anxiolytic-like effect | 352 ng·h/mL | 503 ng/mL | 16 min | 26.3 min | time sniffing female estrous urine (C57B6J mice [1]; 1 mg/kg i.p., mesembrenol p<0.01): significant increase; time sniffing female estrous urine, dose response (C57B6J mice [1]; 0.3, 1 and 3 mg/kg i.p., relative to stress vehicle): dose dependent increase; sucrose preference (C57B6J mice [2]; 1 mg/kg i.p.): significant increase; sucrose preference, dose response (C57B6J mice [2]; 0.3, 1 and 3 mg/kg i.p., 30 minutes pre-test, all time points (4, 8, 12, 24 hour)): dose dependent increase; time spent in the open arms (C57B6J mice [4]; 1 mg/kg i.p., 30 minutes pre-test, relative to vehicle): significant increase; number of open arm entries (C57B6J mice [4]; 0.3, 1 and 3 mg/kg i.p., versus the vehicle group): no change |
| CN(C)CCCN1c2ccccc2CCc2ccccc21 [Imipramine, reference compound] | – | – | – | – | – | – | 1600 nM | – | – | – | – | – | – | IC50 ([7]; human recombinant enzyme, 450 nM cAMP, read-out: IC50 PDE-4D2): 144 to 300 nM |
| COc1ccc(C2CNC(=O)C2)cc1OC1CCCC1 (centres unmarked) [Rolipram, reference compound] | – | – | – | – | – | 23.2 nM | – | – | – | – | – | – | – | – |
